Results published in ChEMBL document CHEMBL5226287, “Small organic molecules targeting the energy metabolism of Mycobacterium tuberculosis” (Eur J Med Chem, 2021).
Converted amounts (≈) assume the structure as drawn. Starred links: 1 amine or outer side, 2 acyl side, 3 side chain; linkers in the order of their positions; H or OH if unused. Non-standard residues stand in square brackets, D forms with d. Residues, ends and D or L forms follow the SMILES beside them. ξ: configuration not given here. *: point of attachment. X1 = CCC(=O)C[C@@H](O)C[C@@H](C)C[C@H](N[*:1])C(=O)[*:2]; Alaψ(CH2NMeCH2CH2OH) = C[C@@H](CN(C)CCO)N*; Decanoyl(2R-Me) = CCCCCCCC[C@@H](C)C(=O)*; Ile(3ξ) = CCC(C)[C@H](N)C(=O)O; ξβ3hP = O=C(O)CC1CCCN1; Aib = CC(C)(N)C(=O)O

Experiments:
Format in all cases: functional
[1] = test system: Mycobacterium tuberculosis variant bovis; experiment: Antimycobacterial activity against Mycobacterium bovis BCG ATCC 35737 at 50 uM by Luminescence assay
[2] = test system: Mycobacterium tuberculosis variant bovis; experiment: Antibacterial activity against Mycobacterium bovis BCG assessed as inhibition of bacterial growth by microdilution based analysis
[3] = test system: Mycobacterium tuberculosis variant bovis; experiment: Antimycobacterial activity against Mycobacterium bovis BCG assessed as reduction in bacterial growth incubated for 48 hrs by HT-SPOTi assay
[4] = test system: Mycobacterium tuberculosis variant bovis; experiment: Antibacterial activity against Mycobacterium bovis BCG assessed as complete inhibition of bacterial growth by Alamar Blue/Resazurin

Cc1ccc(C(=O)N2CCOCC2)cc1Nc1nccn1-c1cc(NC2CC2)ncn1
MIC [1]: 0.036 µM (≈ 0.0151 µg/mL)

Cc1ccc2nc(C)c(C(=O)NCc3ccc(C(F)(F)F)cc3)n2c1
MIC [2]: 0.5 µM (≈ 0.174 µg/mL)

CCCCCCCC[C@@H](C)C(=O)N1CCCC1CC(=O)N[C@@H](C[C@H](C)C[C@H](O)CC(=O)CC)C(=O)NC(C)(C)C(=O)NC(C)(C)C(=O)N[C@H](C(=O)N[C@H](C(=O)NC(C)(C)C(=O)NC(C)(C)C(=O)N[C@@H](C)CN(C)CCO)C(C)C)C(C)CC (stereo partly drawn) ({Decanoyl(2R-Me)}-[ξβ3hP][X1][Aib][Aib][Ile(3ξ)]V[Aib][Aib]-{Alaψ(CH2NMeCH2CH2OH)})
MIC50 [3]: 33 µM (≈ 38.9 µg/mL)

CCc1nc2ccc(Cl)cn2c1C(=O)NCc1ccc(N2CCC(c3ccc(OC(F)(F)F)cc3)CC2)cc1 [TELACEBEC]
MIC90 [4]: 0.125 mg/L (≈ 0.224 µM)
